The text below walks through data of PubChem BioAssay (NCI).

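Following 48 hours of exposure in 96-well plates, responses at five concentrations were used to interpolate endpoints linearly. TGI denotes the concentration required for complete inhibition of growth.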

Some test systems named below: T-47D breast; IGROV1 ovarian; SNB-19 CNS; K-562 leukemia; MALME-3M melanoma; A498 renal; RPMI-8226 leukemia; NCI-H226 lung; DU-145 prostate; CCRF-CEM leukemia.
Common to all, as to assay: growth of human tumour cells (NCI), 48 h

For the molecule `O=C1C=C(NCCc2ccc(O)c([N+](=O)[O-])c2)C(=O)c2[nH]cnc21`, the TGI was 40.7 µM in the experiment with T-47D breast; 54.8 µM in the experiment on IGROV1 ovarian; greater than 100 µM with SNB-19 CNS; 42.7 µM in the experiment with K-562 leukemia; 17.6 µM in the experiment on MALME-3M melanoma; greater than 100 µM in the experiment with A498 renal. This molecule registered a TGI with RPMI-8226 leukemia greater than 100 µM.

`CC(C)(C)OC(=O)NC(CSCc1ccc(C(=O)c2ccccc2)cc1)C(=O)N1CCN(CCCCN2c3ccccc3Sc3cc(N=[N+]=[N-])ccc32)CC1` (centres undefined): the TGI with T-47D breast, in the experiment with IGROV1 ovarian, with SNB-19 CNS, in the experiment with K-562 leukemia, with MALME-3M melanoma and in the experiment with A498 renal was greater than 100 µM throughout. Besides, the TGI with NCI-H226 lung, in the experiment with DU-145 prostate and in the experiment on CCRF-CEM leukemia was greater than 100 µM in each case.

For `O=C1/C(=C/c2cccc([N+](=O)[O-])c2)N=C(c2ccccc2)N1c1nc2ccc(Sc3ccccc3)cc2[nH]1`, the TGI in the experiment on T-47D breast, with IGROV1 ovarian, with SNB-19 CNS, in the experiment on K-562 leukemia, in the experiment with MALME-3M melanoma and with A498 renal was greater than 100 µM in each case. For the same molecule, the TGI with NCI-H226 lung and with RPMI-8226 leukemia was greater than 100 µM in each case.

As to `N=c1oc2ccc3ccccc3c2cc1-c1nc2ccccc2c(=O)[nH]1`, the TGI with T-47D breast was greater than 100 µM; with IGROV1 ovarian, 75.9 µM; with SNB-19 CNS it was greater than 100 µM; in the experiment with K-562 leukemia, greater than 100 µM; in the experiment with MALME-3M melanoma, greater than 100 µM; with NCI-H226 lung, greater than 100 µM. Moreover, the TGI with DU-145 prostate and in the experiment on RPMI-8226 leukemia was greater than 100 µM in each case.

Consider `CC(C)CC1c2[nH]c3ccccc3c2C[C@H]2C(=O)NC(Cc3c[nH]c4ccccc34)C(=O)N12` (some centres undefined), for which the TGI in the experiment on T-47D breast stood at 42.5 µM; in the experiment with IGROV1 ovarian, 36 µM; in the experiment on SNB-19 CNS, 43.6 µM; in the experiment with K-562 leukemia, 61.5 µM; in the experiment on MALME-3M melanoma, 28 µM; in the experiment on A498 renal it was 33.4 µM. For the same molecule, the TGI in the experiment with NCI-H226 lung was 50 µM; in the experiment on DU-145 prostate, greater than 100 µM; with RPMI-8226 leukemia, 48.7 µM.

As to `O=C1CCCC2=C1CC1=C(CCCC1=O)N2c1ccc(Cl)cc1`, the TGI in the experiment with IGROV1 ovarian, in the experiment on SNB-19 CNS, in the experiment on K-562 leukemia, in the experiment with MALME-3M melanoma, with A498 renal and with NCI-H226 lung was greater than 100 µM throughout. Besides, the TGI in the experiment on DU-145 prostate, in the experiment with RPMI-8226 leukemia and with CCRF-CEM leukemia was greater than 100 µM each time.

Regarding `CCC1(O)C(=O)OCc2c1cc1n(c2=O)Cc2cc3cc4c(cc3nc2-1)OCO4` (centres undefined), the TGI with T-47D breast is greater than 100 µM; in the experiment on IGROV1 ovarian it was 1.54 µM; in the experiment on SNB-19 CNS, 2.17 µM; in the experiment on K-562 leukemia, greater than 100 µM; in the experiment on MALME-3M melanoma it was 0.807 µM; in the experiment with A498 renal it was 0.0816 µM. For the same molecule, the figures for the TGI in the experiment on NCI-H226 lung, in the experiment with DU-145 prostate and in the experiment on RPMI-8226 leukemia were 0.0252 µM, greater than 100 µM and 7 µM, respectively.

For `COc1ccc(-c2cc(-c3ccc(C)cc3)n(C3OC(COC(C)=O)C(OC(C)=O)C(OC(C)=O)C3OC(C)=O)c(=S)c2C#N)cc1` (centres undefined), the TGI in the experiment on T-47D breast, in the experiment on IGROV1 ovarian, with SNB-19 CNS, in the experiment on K-562 leukemia, with MALME-3M melanoma and with NCI-H226 lung was greater than 100 µM each time. The TGI in the experiment with DU-145 prostate and with RPMI-8226 leukemia was greater than 100 µM in each case.

On to `C(=N\NC1=NCCCCN1)/c1ccc2ccccc2c1`, for which the TGI with T-47D breast is 62 µM; in the experiment with IGROV1 ovarian it was greater than 100 µM; in the experiment with SNB-19 CNS, greater than 100 µM; in the experiment with K-562 leukemia, 40.2 µM; with MALME-3M melanoma, 30.4 µM; in the experiment on NCI-H226 lung it was 66.1 µM. In addition, the TGI was greater than 100 µM with DU-145 prostate, 76.1 µM in the experiment on RPMI-8226 leukemia and greater than 100 µM with CCRF-CEM leukemia.

On to `CCOP(=O)(OCC)C(c1ccc(F)cc1)N(C(=O)NC(F)(F)F)c1ccc(F)cc1` (centres undefined), for which the TGI in the experiment on IGROV1 ovarian, in the experiment on SNB-19 CNS, with K-562 leukemia, in the experiment with MALME-3M melanoma, in the experiment with NCI-H226 lung and in the experiment on DU-145 prostate was greater than 100 µM in each case. The TGI in the experiment on RPMI-8226 leukemia and in the experiment on CCRF-CEM leukemia was greater than 100 µM throughout.

As for `O=C1OC(C(O)CO)C(C(O)CO)OC1=O` (centres undefined), the TGI in the experiment on T-47D breast, in the experiment on IGROV1 ovarian, in the experiment on SNB-19 CNS, with K-562 leukemia, in the experiment on MALME-3M melanoma and in the experiment on A498 renal was greater than 10 µM throughout. The TGI in the experiment on NCI-H226 lung, with RPMI-8226 leukemia and in the experiment on CCRF-CEM leukemia was greater than 10 µM in each case.

In the case of `COc1ccc(C2CC(c3sc(Nc4ccc(C)cc4)nc3C)=NN2)cc1` (centres undefined), the TGI in the experiment on IGROV1 ovarian was greater than 56.9 µM; in the experiment with SNB-19 CNS, 33.8 µM; in the experiment on K-562 leukemia it was 39.1 µM; in the experiment with A498 renal it was 30.7 µM; in the experiment on NCI-H226 lung, 33.5 µM; with RPMI-8226 leukemia it was 41.4 µM. For the same molecule, the TGI with CCRF-CEM leukemia came out at 54.7 µM.

Consider `Cc1cc(=O)[nH]c2cc(NC(=O)C(C)NC(=O)C(C)NC(=O)C(C)NC(=O)OC(C)(C)C)ccc12` (centres undefined), for which the TGI in the experiment on T-47D breast, in the experiment with IGROV1 ovarian, in the experiment on SNB-19 CNS, with K-562 leukemia, with A498 renal and in the experiment with NCI-H226 lung was greater than 15 µM throughout. The TGI in the experiment on DU-145 prostate and with CCRF-CEM leukemia was greater than 15 µM each time.

Regarding `COP(=O)(OC)C(N)Cc1c[nH]c2ccccc12` (centres undefined), the TGI in the experiment on T-47D breast, in the experiment with IGROV1 ovarian, in the experiment on SNB-19 CNS, in the experiment on K-562 leukemia, in the experiment with A498 renal and with NCI-H226 lung was greater than 100 µM in each case. The TGI in the experiment with DU-145 prostate and in the experiment with RPMI-8226 leukemia was greater than 100 µM each time.

As for `COc1ccc(-c2c(C#N)c(N)[nH]c(=S)c2C#N)cc1`, the TGI was greater than 100 µM with IGROV1 ovarian; greater than 100 µM with SNB-19 CNS; greater than 100 µM with K-562 leukemia; 86 µM in the experiment on MALME-3M melanoma; greater than 100 µM with A498 renal; greater than 100 µM in the experiment with NCI-H226 lung. Also, the TGI in the experiment on DU-145 prostate is greater than 100 µM; with RPMI-8226 leukemia it was 74.2 µM.
